SMILES strings stand for the structures. Several values for one entry are separate records, joined by “and”; a condition that tells them apart may be missing. Identical values can stand only once. Like-named read-outs stand apart in the source and are kept apart here.

One data set can be described thus: Single-dose oral calf PK. Type of data set: in vivo, Holstein bull calves. The conditions noted are these: calves, oral 5 mg per kg. As to the method: Single-dose oral and intravenous murine PK studies were performed by WuXi Biologics (Wuxi, China) in female CD-1 mice in compliance with animal care guidelines. […] Single-dose oral calf PK studies were performed at the University of Vermont in compliance with animal care guidelines and with approval from the University of Vermont Institutional Animal Care and Use Committee. […] Doses were squirted into the calves’ mouths during interruptions in bottle feeding. Fecal samples were collected at the indicated times by manual anal stimulation. […] Fecal AN7973 was measured by extracting AN7973 from homogenized feces with acetonitrile. For this, feces were added to 4 volumes of acetonitrile (4 mL per g), mixed by vortexing for 5 min at room temperature, and then centrifuged. […] The fecal extraction method was validated with a standard curve of compound added to control feces. […] Non-compartmental analysis of the mean concentration-time profiles was performed using Phoenix version 6.4 (Pharsight Corporation, Mountain View, CA, USA). Concentrations below the limit of quantitation were assigned values of zero for generation of mean concentrations. Predictions of multidose exposures were generated by non-parametric superposition of the single-dose PK data using Phoenix version 6.4 (Supplementary Fig. 5).

Data set [1] has as its system C. parvum (University of Arizona Iowa isolate). In kind it is in vivo, C57BL/6 IFN-γ−/− mice. As to the method:
Interferon gamma (IFN-γ) knockout mice were used to model acute Cryptosporidium infection. All IFN-γ knockout mouse studies were performed in compliance with animal care guidelines and were approved by the Explora BioLabs (San Diego, CA) Institutional Animal Care and Use Committee. Four-week-old female C57BL/6 IFN-γ^−/− mice with normal flora were purchased from The Jackson laboratory and acclimated for 3 days prior to infection by oral gavage with ∼10^6 C. parvum Iowa isolate oocysts (Sterling Laboratory, University of Arizona) suspended in sterile distilled water. At the indicated times following infection, mice were treated with compound vehicle alone, clofazimine (positive control), or once daily AN7973 at the indicated doses. Fecal parasite shedding was measured by isolating oocysts using sucrose gradient centrifugation. Sheather’s sucrose solution was freshly prepared by dissolving 156.25 g sucrose and 2.5 mL phenol in 100 mL water. Two sucrose solutions were prepared: (A) specific gravity of 1.103 (33% Sheather’s and 0.1% Tween 80 in PBS) and (B) specific gravity of 1.064 (20% Sheather’s and 0.1% Tween 80 in PBS). In a 2 mL microfuge tube, a gradient was prepared by laying 0.75 mL of solution A, then carefully laying 0.75 mL of solution B, slowly as to prevent mixing of the two layers. Fecal pellets were removed from storage, and homogenized by vortexing and pipetting. 0.2 mL fecal homogenate was overlaid on top of gradient in each microfuge tube. Oocysts were floated from feces by centrifugation at 1000 × g for 20 min and collected with a pipet tip from the 1.064/1.103 specific gravity interface between solutions A and B. Oocysts were rinsed once in cold PBS, pelleted by centrifugation at 15,000 × g for 10 min, and resuspended in PBS. Isolated oocysts were then stained with a fluorescein isothiocyanate-conjugated mouse anti-Cryptosporidium antibody (Bio-Rad catalog# 2402-3007 F; 0.25 µg per sample) and quantified using a Guava EasyCyte flow cytometer and CytoSoft data acquisition software (version 5.3; Guava Technologies, Inc.). Oocysts per milliliter of sample were normalized to counts per milligram of feces.

In the next data set the target is CYP3A4 (Homo sapiens, UniProt P08684). Description: CYP450 inhibition 3A4. Type of data set: in vitro ADME.
Sequence of CYP3A4 (P08684 whole entry): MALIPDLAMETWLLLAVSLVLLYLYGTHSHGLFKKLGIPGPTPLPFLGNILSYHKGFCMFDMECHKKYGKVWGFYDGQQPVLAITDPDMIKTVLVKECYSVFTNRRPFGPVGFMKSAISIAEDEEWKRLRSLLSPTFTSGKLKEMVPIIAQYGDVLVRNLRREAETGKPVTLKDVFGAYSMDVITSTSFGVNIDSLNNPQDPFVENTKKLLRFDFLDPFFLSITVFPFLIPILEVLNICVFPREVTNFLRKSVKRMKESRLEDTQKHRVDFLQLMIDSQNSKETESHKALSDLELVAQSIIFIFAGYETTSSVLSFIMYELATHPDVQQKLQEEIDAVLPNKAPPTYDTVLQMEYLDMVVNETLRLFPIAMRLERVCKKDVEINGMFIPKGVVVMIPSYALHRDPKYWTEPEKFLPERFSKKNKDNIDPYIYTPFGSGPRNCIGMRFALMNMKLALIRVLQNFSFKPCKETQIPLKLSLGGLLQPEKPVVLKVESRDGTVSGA
In a further data set the target is CYP2C19 (Homo sapiens, UniProt P33261). Description: CYP450 inhibition 2C19. Type of data set: in vitro ADME.
Sequence of CYP2C19 (P33261 whole entry): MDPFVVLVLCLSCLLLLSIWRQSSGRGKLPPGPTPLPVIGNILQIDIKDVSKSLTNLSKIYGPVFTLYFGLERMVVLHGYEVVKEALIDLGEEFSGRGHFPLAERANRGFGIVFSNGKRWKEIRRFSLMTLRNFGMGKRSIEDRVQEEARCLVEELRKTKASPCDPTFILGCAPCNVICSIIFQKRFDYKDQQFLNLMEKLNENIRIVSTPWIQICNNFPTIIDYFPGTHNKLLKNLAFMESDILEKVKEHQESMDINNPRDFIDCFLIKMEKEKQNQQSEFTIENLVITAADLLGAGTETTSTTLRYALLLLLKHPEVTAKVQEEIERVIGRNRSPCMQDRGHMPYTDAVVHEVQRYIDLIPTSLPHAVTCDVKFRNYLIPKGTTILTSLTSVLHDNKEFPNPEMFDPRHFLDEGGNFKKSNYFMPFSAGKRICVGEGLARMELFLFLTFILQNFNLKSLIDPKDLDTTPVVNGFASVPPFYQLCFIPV
A short description of a further data set: Cytotoxicity THP-1 (3d). Type of data set: cell-based. The following applies: human, THP-1 cells, 25 µM highest concentration tested.
The nature of data set [2]: Rat toxicokinetics (TK) study. In kind it is in vivo, Sprague-Dawley male rats. The conditions noted are these: for AUC / Cmax: po, 80 mg/kg.
Experimental: A repeated oral dose toxicity and separate toxicokinetics (TK) study were performed in male rats by WuXi AppTec Company (Suzhou, China). […] All rat studies were performed using ∼8-week-old Sprague-Dawley male rats (Rattus novegicus)/Crl: CD[SD] VAF/Plus weighing between 243.22 and 276.57 g at the start of compound dosing. […] Serum was collected from vehicle-control animals at 1 h and 4 h after dosing on days 1 and 7.
The mark [3] stands for this setting: male, Holstein, bovine, plasma, 5 mg/kg.
Setting [4] is: male, Sprague-Dawley, rat, serum, rat, 80 mg·kg-1 oral once daily, Day 1.
[5] abbreviates: male, Sprague-Dawley, rat, serum, rat, 80 mg·kg-1 oral once daily, Day 7.

The term AUC(0-inf) denotes total exposure, with the tail of the curve extrapolated. Low values mean low exposure, high ones high exposure. Broadly, the Cmax is the highest concentration seen after dosing. The term half-life denotes the time in which the quantity being followed falls by half. For orientation: inhibition means the change of the read-out against control, counted positive when it falls. High values mean a response far below the control, low ones a response near the control. Usually IC50 stands for the concentration that inhibits the measured activity by half. As usually defined, the AUC is the area under the concentration-time curve, a measure of exposure. By Tmax is commonly meant the time from dosing to the highest level. The compound `CC1(C)OB(O)c2cc(NC(=O)c3ccc(-n4cccn4)cc3Cl)ccc21` [AN7973] returned a t1/2 in the data set “Single-dose oral calf PK” of 31.1 h. The compound further returned an area under the curve AUC(0-inf) in the data set “Single-dose oral calf PK” (setting [3]) of 190 µg·h/mL. For the same compound, the figures for the Cmax (in the data set “Single-dose oral calf PK” (setting [3]); in data set [2] (setting [4]); in data set [2] (setting [5])) were 3570 ng/mL, 11600 ng/mL and 10100 ng/mL, respectively. Besides, the half-life in “Single-dose oral calf PK” (male, Holstein, bovine, plasma, po, 5 mg/kg) is 31 h; in data set [2] (male, Sprague-Dawley, serum, rat, 80 mg·kg-1 oral once daily, Day 7) it was 22.7 h. Further, the “fecal oocyst shedding, individual mice” value was 5.45 and 13 (2×) and 10 in data set [1] (10 mg/kg QD from day 4, day p.i. 8); 11 and 15 (2×) and 21 in data set [1] (10 mg/kg QD from day 4, day p.i. 14); 3 (2×) and 6 and 9 in data set [1] (25 mg/kg QD from day 4, day p.i. 7). The “efficacy in IFN-γ KO mouse” value in data set [1] (5, 10, 25 mg per kg once daily oral, efficacy at 10 mg per kg, maximal efficacy similar to clofazimine) is “dose-dependent efficacy”. In addition, the “adverse effects in IFN-γ KO mice” value in data set [1] (mouse, in vivo) was “no adverse effects”. Besides, the values for the inhibition at 10 µM against CYP3A4 and on CYP2C19 were 1% and 27%, respectively. This compound came in with an IC50 at 3 d in the data set “Cytotoxicity THP-1 (3d)” of over 25 µM. In data set [2] (80 mg per kg once daily, 7 days), the compound accumulation result is “No compound accumulation was observed”. The exposure (AUC) stood at 170 µg·h/mL in data set [2] (setting [4]) and 155 µg·h/mL in data set [2] (setting [5]). In data set [2] (male, Sprague-Dawley, serum, rat, 80 mg·kg-1 oral once daily, Day 1), the Tmax stood at 8 h.

(Values after publication PMC6597546, “Identification of a potent benzoxaborole drug candidate for treating cryptosporidiosis” (Nature Communications, 2019).)
